Key:
Format in all cases: in vivo
[1] = system: ragweed (common ragweed, Ambrosia elatior); assay: Test A postemergence ragweed; details: 0 to 100 scale, 0 is no effect, 100 is complete control
Procedure, shortened: (§1)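 Visual injury rating, 0–100 scale (0 = no effect, 100 = complete control), versus untreated controls ~10 d after treatment in greenhouse. Pre: directed soil spray onto seeded loam/sand. Post: foliar spray at 2–10 cm, 1–2 leaf stage. Solvent-surfactant formulation.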

[2] = system: blackgrass (Alopecurus myosuroides); assay: Test A postemergence blackgrass; details: 0 to 100 scale, 0 is no effect, 100 is complete control
Procedure, shortened: as §1

[3] = system: rice (Oryza sativa); assay: Test B flooded paddy test rice; details: Table B, Flood, scale 0 to 100
Procedure, shortened: (§2)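 Test pots carrying 2-leaf-stage seedlings were flooded to 3 cm above the soil surface when treated. Compound went directly into the standing water. Plants stayed in the greenhouse at that depth for 13 to 15 d before visual comparison with controls.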

[4] = system: barnyardgrass (Echinochloa crus-galli); assay: Test A postemergence barnyardgrass; details: 0 to 100 scale, 0 is no effect, 100 is complete control
Procedure, shortened: as §1

[5] = system: foxtail, giant (giant foxtail, Setaria faberii); assay: Test A postemergence foxtail, giant; details: 0 to 100 scale, 0 is no effect, 100 is complete control
Procedure, shortened: as §1

[6] = system: ragweed (common ragweed, Ambrosia elatior); assay: Test A preemergence ragweed; details: 0 to 100 scale, 0 no effect, 100 complete control
Procedure, shortened: as §1

[7] = system: corn (Zea mays); assay: Test A postemergence corn; details: 0 to 100 scale, 0 is no effect, 100 is complete control
Procedure, shortened: as §1

[8] = system: ducksalad (Heteranthera limosa); assay: Test B flooded paddy test ducksalad; details: Table B, Flood, scale 0 to 100
Procedure, shortened: as §2

[9] = system: kochia (Kochia scoparia); assay: Test A preemergence kochia; details: 0 to 100 scale, 0 no effect, 100 complete control
Procedure, shortened: as §1

[10] = system: ryegrass, Italian (Italian ryegrass, Lolium multiflorum); assay: Test A postemergence ryegrass, Italian; details: 0 to 100 scale, 0 is no effect, 100 is complete control
Procedure, shortened: as §1

[11] = system: pigweed (Amaranthus retroflexus); assay: Test A postemergence pigweed; details: 0 to 100 scale, 0 is no effect, 100 is complete control
Procedure, shortened: as §1

[12] = system: sedge, umbrella (small-flower umbrella sedge, Cyperus difformis); assay: Test B flooded paddy test sedge, umbrella; details: Table B, Flood, scale 0 to 100
Procedure, shortened: as §2

[13] = system: barnyardgrass (Echinochloa crus-galli); assay: Test B flooded paddy test barnyardgrass; details: Table B, Flood, scale 0 to 100
Procedure, shortened: as §2

[14] = system: pigweed (Amaranthus retroflexus); assay: Test A preemergence pigweed; details: 0 to 100 scale, 0 no effect, 100 complete control
Procedure, shortened: as §1

[15] = system: barnyardgrass (Echinochloa crus-galli); assay: Test A preemergence barnyardgrass; details: 0 to 100 scale, 0 no effect, 100 complete control
Procedure, shortened: as §1

[16] = system: galium (catchweed bedstraw, Galium aparine); assay: Test A postemergence galium; details: 0 to 100 scale, 0 is no effect, 100 is complete control
Procedure, shortened: as §1

[17] = system: ryegrass, Italian (Italian ryegrass, Lolium multiflorum); assay: Test A preemergence ryegrass, Italian; details: 0 to 100 scale, 0 no effect, 100 complete control
Procedure, shortened: as §1

[18] = system: wheat (Triticum aestivum); assay: Test A postemergence wheat; details: 0 to 100 scale, 0 is no effect, 100 is complete control
Procedure, shortened: as §1

[19] = system: foxtail, giant (giant foxtail, Setaria faberii); assay: Test A preemergence foxtail, giant; details: 0 to 100 scale, 0 no effect, 100 complete control
Procedure, shortened: as §1

[20] = system: kochia (Kochia scoparia); assay: Test A postemergence kochia; details: 0 to 100 scale, 0 is no effect, 100 is complete control
Procedure, shortened: as §1

Row | Compound | Plant response rating, Ragweed ([1]; 125 g ai/ha) | Plant response rating, Ragweed ([1]; 500 g ai/ha) | Plant response rating, Blackgrass ([2]; 125 g ai/ha) | Plant response rating, Blackgrass ([2]; 500 g ai/ha) | Plant response rating, Barnyardgrass ([4]; 125 g ai/ha) | Plant response rating, Barnyardgrass ([4]; 500 g ai/ha) | Plant response rating, Foxtail, Giant ([5]; 125 g ai/ha) | Plant response rating, Foxtail, Giant ([5]; 500 g ai/ha) | Ragweed plant response rating ([6]; 125 g ai/ha) | Ragweed plant response rating ([6]; 500 g ai/ha) | Plant response rating, Corn ([7]; 125 g ai/ha) | Plant response rating, Corn ([7]; 500 g ai/ha) | Kochia plant response rating ([9]; 125 g ai/ha) | Kochia plant response rating ([9]; 500 g ai/ha) | Plant response rating, Ryegrass, Italian ([10]; 125 g ai/ha) | Plant response rating, Ryegrass, Italian ([10]; 500 g ai/ha) | Plant response rating, Pigweed ([11]; 125 g ai/ha) | Plant response rating, Pigweed ([11]; 500 g ai/ha) | Pigweed plant response rating ([14]; 125 g ai/ha) | Pigweed plant response rating ([14]; 500 g ai/ha) | further results
1 | O=C1NCCC(c2cccc(C(F)(F)F)c2)C1C(=O)Nc1cccc(Cl)c1Cl (racemic) [Compound 31] | 0 | 0 | 20 | 40 | 60 | 80 | 70 | 80 | 0 | 0 | 0 | 0 | 0 | 0 | 0 | 0 | 0 | 0 | 0 | 0 | Plant response rating ([3]; 500 g ai/ha): 10; Plant response rating ([8]; 500 g ai/ha): 0; Plant response rating ([12]; 500 g ai/ha): 0; Plant response rating ([13]; 500 g ai/ha): 95; Barnyardgrass plant response rating ([15]; 125 g ai/ha): 70; Barnyardgrass plant response rating ([15]; 500 g ai/ha): 80; Plant response rating, Galium ([16]; 125 g ai/ha): 0; Plant response rating, Galium ([16]; 500 g ai/ha): 0; Ryegrass, Italian plant response rating ([17]; 125 g ai/ha): 0; Ryegrass, Italian plant response rating ([17]; 500 g ai/ha): 0; Plant response rating, Wheat ([18]; 125 g ai/ha): 0; Plant response rating, Wheat ([18]; 500 g ai/ha): 0; Foxtail, Giant plant response rating ([19]; 125 g ai/ha): 70; Foxtail, Giant plant response rating ([19]; 500 g ai/ha): 90; Plant response rating, Kochia ([20]; 125 g ai/ha): 0; Plant response rating, Kochia ([20]; 500 g ai/ha): 0
2 | O=C1NCCC(c2cccc(OC(F)F)c2)C1C(=O)Nc1ccccc1F (racemic) [Compound 45] | 0 | 0 | 0 | 20 | 0 | 60 | 0 | 50 | 0 | 0 | 0 | 0 | 0 | 0 | 0 | 0 | 0 | 0 | 0 | 0 | Plant response rating ([3]; 500 g ai/ha): 0; Plant response rating ([8]; 500 g ai/ha): 50; Plant response rating ([12]; 500 g ai/ha): 0; Plant response rating ([13]; 500 g ai/ha): 0; Barnyardgrass plant response rating ([15]; 125 g ai/ha): 20; Barnyardgrass plant response rating ([15]; 500 g ai/ha): 70; Plant response rating, Galium ([16]; 125 g ai/ha): 0; Plant response rating, Galium ([16]; 500 g ai/ha): 0; Ryegrass, Italian plant response rating ([17]; 125 g ai/ha): 0; Ryegrass, Italian plant response rating ([17]; 500 g ai/ha): 0; Plant response rating, Wheat ([18]; 125 g ai/ha): 0; Plant response rating, Wheat ([18]; 500 g ai/ha): 0; Foxtail, Giant plant response rating ([19]; 125 g ai/ha): 40; Foxtail, Giant plant response rating ([19]; 500 g ai/ha): 80; Plant response rating, Kochia ([20]; 125 g ai/ha): 0; Plant response rating, Kochia ([20]; 500 g ai/ha): 0
3 | O=C1NCC[C@@H](c2cccc(C(F)(F)F)c2)[C@@H]1C(=O)Nc1cccc(F)c1F [Compound 20] | 0 | 0 | 0 | 20 | 40 | 80 | 40 | 80 | 0 | 0 | 0 | 20 | 0 | 0 | 0 | 20 | 0 | 0 | 0 | 0 | Plant response rating ([3]; 250 g ai/ha): 0; Plant response rating ([8]; 250 g ai/ha): 0; Plant response rating ([12]; 250 g ai/ha): 0; Plant response rating ([13]; 250 g ai/ha): 0; Barnyardgrass plant response rating ([15]; 125 g ai/ha): 50; Barnyardgrass plant response rating ([15]; 500 g ai/ha): 90; Plant response rating, Galium ([16]; 125 g ai/ha): 0; Plant response rating, Galium ([16]; 500 g ai/ha): 0; Ryegrass, Italian plant response rating ([17]; 125 g ai/ha): 0; Ryegrass, Italian plant response rating ([17]; 500 g ai/ha): 0; Plant response rating, Wheat ([18]; 125 g ai/ha): 0; Plant response rating, Wheat ([18]; 500 g ai/ha): 0; Foxtail, Giant plant response rating ([19]; 125 g ai/ha): 60; Foxtail, Giant plant response rating ([19]; 500 g ai/ha): 90; Plant response rating, Kochia ([20]; 125 g ai/ha): 0; Plant response rating, Kochia ([20]; 500 g ai/ha): 0
4 | O=C1NCCC(c2cccc(OC(F)(F)F)c2)C1C(=O)Nc1ccccc1F (racemic) [Compound 37] | 0 | 0 | 0 | 0 | 60 | 80 | 20 | 70 | 0 | 0 | 0 | 0 | 0 | 0 | 0 | 20 | 0 | 0 | 0 | 0 | Plant response rating ([3]; 250 g ai/ha): 0; Plant response rating ([8]; 250 g ai/ha): 90; Plant response rating ([12]; 250 g ai/ha): 0; Plant response rating ([13]; 250 g ai/ha): 35; Barnyardgrass plant response rating ([15]; 125 g ai/ha): 40; Barnyardgrass plant response rating ([15]; 500 g ai/ha): 70; Plant response rating, Galium ([16]; 125 g ai/ha): 0; Plant response rating, Galium ([16]; 500 g ai/ha): 0; Ryegrass, Italian plant response rating ([17]; 125 g ai/ha): 0; Ryegrass, Italian plant response rating ([17]; 500 g ai/ha): 0; Plant response rating, Wheat ([18]; 125 g ai/ha): 0; Plant response rating, Wheat ([18]; 500 g ai/ha): 0; Foxtail, Giant plant response rating ([19]; 125 g ai/ha): 70; Foxtail, Giant plant response rating ([19]; 500 g ai/ha): 90; Plant response rating, Kochia ([20]; 125 g ai/ha): 0; Plant response rating, Kochia ([20]; 500 g ai/ha): 0
